Drawing on PubChem BioAssay AID651779 (The Scripps Research Institute Molecular Screening Center, 2012), this text covers IC50 for 51 compounds.

Active and inactive are the calls of the source.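 How the source made its calls: active means cytotoxic to HEK293 cells with IC50 at or below 10 µM; inactive means IC50 above 10 µM.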

This test concerns HEK293 viability, CellTiter-Glo ATP luminescence. Kind of test: HEK293 cell cytotoxicity, late-stage follow-up, cytotoxicity control for SRC3 inhibitor project, luminescence, dose response (AID 651779).

What is called IC50 is the concentration needed to halve the response being measured. Regarding `NS(=O)(=O)c1ccc(Nc2nc(-c3cccnc3)cs2)cc1`, the IC50 is > 35.9 µM (inactive).

Take `S=C(c1ccc(-c2ccccc2)cc1)N1CCOCC1`: the IC50 was > 35.9 µM (inactive). In the case of `CC(C)N(c1ccccc1)c1ccc(NC(=O)CCl)cc1`, the IC50 was 0.441 µM. As for `O=C(CCCc1nc(-c2ccccc2Cl)no1)NC1CCCC1`, the IC50 was > 35.9 µM (inactive).

On to `O=C(Nc1nc(-c2ccccn2)cs1)c1cccc(S(=O)(=O)N2CCOCC2)c1`, for which the IC50 was > 35.9 µM (inactive). On to `COc1cc2c(cc1OC)C(NC(=O)C(F)(F)F)CNC2=O` (stereo unspecified), for which the IC50 is 9.84 µM.

In the case of `O=C(NC(NC(=S)N1CCOCC1)C(Cl)(Cl)Cl)c1ccc(Cl)cc1` (stereo unspecified), the IC50 is > 35.9 µM (inactive).

On to `CN(C)c1ccc(CNC(=O)CCNS(=O)(=O)c2cc(Br)cnc2N)cc1`, for which the IC50 is > 35.9 µM (inactive). With `O=C(CCl)N1N=C(c2ccco2)CC1c1ccco1` (stereo unspecified), the IC50 is 5.77 µM. For the compound `CC(C)n1c(SCC(=O)Nc2nc3c(s2)CCCC3)nc2c1c(=O)n(C)c(=O)n2C`, the IC50 is 33.6 µM (inactive). For `COc1cc(N=c2c([N+](=O)[O-])nn(-c3ccc4c(c3)OCCO4)n2O)cc(OC)c1`, the IC50 was 25.6 µM (inactive). The figure for `O=C(COC(=O)c1ccc[nH]c1=O)Nc1ccc(N2CCCCC2)cc1` is > 35.9 µM (inactive); for `O=C(CCl)N1N=C(c2ccco2)CC1c1cccs1` (stereo unspecified) it is 2.9 µM; for `Cc1ccc(OCC(=O)c2cc(C)n(Cc3cccs3)c2C)c([N+](=O)[O-])n1` it is > 35.9 µM (inactive). Take `COc1ccc(/C=C2/SC(=S)N(CCC(=O)O)C2=O)cc1`: the IC50 was > 35.9 µM (inactive). As for `S=C(Nc1ccccc1)Nc1ccc(OCc2ccc(Cl)cc2Cl)cc1`, the figure is > 35.9 µM (inactive); as for `Cc1cc(C)cc(N=c2c([N+](=O)[O-])nn(-c3ccc4c(c3)OCCO4)n2O)c1`, > 35.9 µM (inactive). For the compound `COC(=O)c1c(C)n(-c2ccc(OC)cc2)c2ccc(O)cc12`, the IC50 is > 35.9 µM (inactive).

Regarding `Cc1ccc(N=c2c([N+](=O)[O-])nn(-c3ccc4c(c3)OCCO4)n2O)c(Cl)c1`, the IC50 was > 35.9 µM (inactive).

Regarding `Cc1cc(N=c2c([N+](=O)[O-])nn(-c3ccc4c(c3)OCCO4)n2O)ccc1Br`, the IC50 was > 35.9 µM (inactive). As for `CCc1ccc(/C=C2\SC(=S)N(CCCC(=O)NCCCN3CCOCC3)C2=O)cc1`, the IC50 is 17.9 µM (inactive).

`Cc1ccc(N=c2c([N+](=O)[O-])nn(-c3ccc4c(c3)OCCO4)n2O)cc1F`: the IC50 is > 35.9 µM (inactive). As for `Cc1cccc(NC(=O)c2cc(Cl)ccc2[N+](=O)[O-])c1`, the figure is > 35.9 µM (inactive); as for `Cc1cc(/C=C2\Cc3ccccc3C2=O)c(C)n1-c1ccccc1`, > 35.9 µM (inactive).

On to `CCOc1ccc(/C=C2\SC(=S)N(CCCC(=O)NCCCN3CCOCC3)C2=O)cc1`, for which the IC50 was > 35.9 µM (inactive). As for `Cn1nc(C(F)(F)F)c(C#N)c1N1CCN(c2ccc(F)cc2)CC1`, the IC50 was 28.3 µM (inactive). As to `Cc1c(Cl)cccc1N=c1c([N+](=O)[O-])nn(-c2ccc3c(c2)OCCO3)n1O`, the IC50 is > 35.9 µM (inactive). As to `O=[N+]([O-])c1nn(-c2ccc3c(c2)OCCO3)n(O)c1=Nc1ccccc1`, the IC50 is > 35.9 µM (inactive). `O=[N+]([O-])c1cccc2c1ccc1ncccc12`: the IC50 was > 35.9 µM (inactive). On to `O=C1CCC2S/C(=C/Nc3ccc(C(F)(F)F)cc3)C(=O)N12` (stereo unspecified), for which the IC50 is > 35.9 µM (inactive).

For the compound `NC(=O)c1sc2nc3c(c(-c4ccco4)c2c1N)CCC3`, the IC50 is > 35.9 µM (inactive). As for `O=C(Nc1nc2ccccc2s1)C1c2ccccc2Oc2ccccc21`, the IC50 was > 35.9 µM (inactive).

`CCc1ccc(N=c2c([N+](=O)[O-])nn(-c3ccc4c(c3)OCCO4)n2O)cc1`: the IC50 was > 35.9 µM (inactive). Regarding `CCOC(=O)C(=CNc1ccc(NC2=NCC(C)S2)cc1)C(=O)OCC` (stereo unspecified), the IC50 is > 35.9 µM (inactive). `Cc1c(/C(O)=C2/C(=O)C(=O)N(Cc3cccnc3)C2c2ccccn2)cnn1-c1ccccc1` (stereo unspecified): the IC50 was > 35.9 µM (inactive).

As for `CCCCC(=O)Nc1cccn2ncnc12`, the IC50 was > 35.9 µM (inactive).

Regarding `O=C(Nc1cccnc1)c1ccc(C(=O)Nc2cccnc2)cc1`, the IC50 was > 35.9 µM (inactive).

On to `c1ccc(-c2nnc(-c3ccccn3)nc2NC2CCCCC2)cc1`, for which the IC50 was > 35.9 µM (inactive). With `CC(=O)/C(N=Nc1ccc2c(c1)OCCO2)=C(/C)O`, the IC50 was > 35.9 µM (inactive). On to `CCC(=O)N1CCN(c2ccnc3cc(Cl)ccc23)CC1`, for which the IC50 was > 35.9 µM (inactive). As to `O=C(O)CN1C(=O)/C(=C\c2ccccc2OCc2ccc(Cl)cc2Cl)SC1=S`, the IC50 was > 35.9 µM (inactive). Take `O=[N+]([O-])c1nn(-c2ccc3c(c2)OCCO3)n(O)c1=Nc1ccc(Cl)cc1`: the IC50 was > 35.9 µM (inactive). As for `Cc1ccc(/C=C2\SC(=S)N(CCCC(=O)NC3CCCC3)C2=O)cc1`, the IC50 is > 35.9 µM (inactive).

With `Cc1ccc(OCC(=O)c2cc(C)n(-c3ccccc3)c2C)c([N+](=O)[O-])n1`, the IC50 was > 35.9 µM (inactive). As to `Cc1nn(CC(=O)N2CCN(c3cccc(C(F)(F)F)c3)CC2)c(=O)c2cccn12`, the IC50 was > 35.9 µM (inactive). For the compound `CC(=O)N1CCN(c2ncnc3ccccc23)CC1`, the IC50 was > 35.9 µM (inactive). As for `NC(=S)NN=C1CCSc2ccc(Cl)cc21`, the IC50 is 31.4 µM (inactive). Take `O=C(CCl)NC(Cc1ccccc1)c1ccccc1` (stereo unspecified): the IC50 was 22.3 µM (inactive). As for `COc1cc(C2c3cc4c(cc3C(OC3OC5COC(c6cccs6)OC5C(O)C3O)C3COC(=O)C23)OCO4)cc(OC)c1O` (stereo unspecified), the figure is 24 µM (inactive).

In the case of `Cc1c(CC(=O)NCCCC(=O)O)c(=O)oc2cc3c(cc12)CCC(C)(C)O3`, the IC50 is > 35.9 µM (inactive). Regarding `Cc1ccc(/C=C2/SC(=S)N(CCCC(=O)Nc3ccc(O)cc3)C2=O)cc1`, the IC50 was > 35.9 µM (inactive).
